# Experimental data taken from patent publication US9675607B2, “Epimorphic regeneration and related hydrogel delivery systems” (Northwestern University, priority 2013, dated 2017).
# Entries after “also recorded” stand apart in the source; their conditions may differ.
# Tests used:
# [1] = test system: HIF2a; test: HIF2a levels in injured ear tissue of SW mice (Western); type: in vivo, mouse
# Procedure: (§1) Ear tissue samples (3 ear hole donuts/ear from 3 separate mice) were homogenized in radio-immunoprecipitation assay buffer (50 mM Tris-HCl pH 7.6, containing 150 mM NaCl,1% Triton X-100, 1% sodium deoxycholate, 1 mM EDTA and 0.1% SDS) with 1 mM PMSF and a protease inhibitor cocktail (Sigma). Samples with equal amounts of protein (about 40 μg) were loaded into a NuPAGE 4-12% Bis-Tris gradient gel or 8% Bis-Tris gel (Life Technologies, Grand Island, N.Y.), electrophoresed and then electro-transferred onto a PVDF-FL membrane (Immobilon, Billerica, Mass.).
# Mice were injected subcutaneously at the base of the neck with 100 μL of 10% (w/v) 1:1 (w/w) ratio of P8Cys (with or without 1,4-DPCA drug crystal) to P8NHS hydrogel prepared in PBS. Each component was kept cold and mixed just prior to injection. At different time points, mice were euthanized and tissues were removed for protein and RNA analysis.
# [2] = test system: HIF target gene transcription; test: RT-PCR of HIF target gene transcription in treated B6 cells; type: cell-based, mouse
# Procedure: (§2) Total RNA from ear fibroblast-like cells or ear hole donuts was prepared with Qiagen RNeasy kit (Qiagen) according to the manufacturer's guidelines. First strand cDNA was synthesized from 1 μg of RNA using the Superscript First-Strand Synthesis System (Invitrogen, Carlsbad, Calif.) according to the manufacturer's instructions. qPCR was performed with SYBR green PCR Master Mix (Applied Biosystems, Life Technologies). In brief, a 20 μl mixture was used containing 10 μl SYBR Green PCR master mix, 1 μl forward and reverse primer, 6 μl sterile water, and 2 μl of complementary DNA template. A negative control (non-template control) was performed in each run. The real-time PCR was performed using a Quant Studio 6 Flex (Applied Biosystems) according to the manufacturer's instructions. All data were normalized to 18S rRNA and quantitative measurements were obtained using the ΔΔCT method. (The primers used are listed with the kit, but not shown, here.
# [3] = test system: SW ear tissue; test: Histology, immunostaining and qPCR of injured ear tissue of SW mice; type: in vivo, mouse
# Procedure: as §2
# The methods used were performed as previously described. Tissue from normal ears were fixed with Prefer fixative (the active ingredient is glyoxal) (Anatech) overnight and then washed in H2O. Tissue was embedded in paraffin and 5-μm thick sections cut. Before staining, slides were dewaxed in xylene and rehydrated. Antigen retrieval was performed by autoclaving for 20 min in 10 mM Sodium Citrate, pH 6.0. Tissue sections were then treated with 3% H2O2 and nonspecific binding was blocked with 4% BSA (A7906; Sigma) for 1 h. For immunocytochemistry staining, primary ear skin fibroblasts were grown on coverslips in DMEM with 10% FBS at 37° C. in a humidified 5% CO2 incubator. The coverslips were rinsed with 1×PBS, the cells were fixed in cold methanol (−20° C.) for 10 min, rinsed with 1×PBS, treated with 0.1% Triton-X100, and then incubated with the appropriate primary and secondary antibodies (Table 1). Photomicrographs were produced using the fluorescent microscope (Olympus AX70) and a Spot camera with bundled software.
# For histological stains, tissue sections were treated the same as above and then stained with Hematoxylin (Leica Microsystems, #3801562) and Eosin (Leica Microsystems, #3801602), Picro-Sirius Red (Poly Scientific, cat. # s2365), Alcian blue (1% in 3% acetic acid (Polyscience, Bay Shore, N.Y., cat # S111A), or toluidine blue O (Allied Chemical, Morristown, N.J., cat. # NA0652), counterstained with Kernechtrot (Polyscience, Bay Shore, N.Y., cat # S248). The slides were washed, […], cleared with Xylene and coverslipped with Permount mounting media (Fisher, SP15-500). Staining was visualized using an Olympus (AX70) microscope in bright field for H&E and under polarized light for Picro-Sirius Red.
# For quantitation of IHC signal, the method used was previously described. Briefly, we used ImagePro v4.0 for image analysis by selecting positive staining from multiple areas in the sections. The number of “positive staining” pixels was determined. The area was expressed in square microns and the final data were expressed as IHC staining signal per square micron. The mean of 2-6 samples were plotted and standard errors calculated.
# [4] = test system: prolyl 4-hydroxylase; settings: cited from earlier work
# [5] = test system: hydroxylases (PHDs and FIH); settings: cited from earlier work
# [6] = test system: collagen hydroxylation; settings: rats given this compound; cited from earlier work
# [7] = Solubility of 1,4-DPCA; type: physicochemical
# [8] = test system: HIF1a; test: HIF1a levels in injured ear tissue of SW mice after subcutaneous drug/gel injection (Western, IHC); type: in vivo, mouse; settings: single 100 ul injection, 2 mg/ml drug microcrystals; Western and IHC
# Procedure: The kinetics of the effectiveness of the drug/gel construct in the injured ear was examined to determine how often re-injection would be necessary. After earpunching, a single injection (100 ul) of hydrogel containing either 2 mg/ml drug microcrystals (Gd) or 0 mg/ml drug microcrystals (G0) was given plus an un-injected group. Ears were harvested daily for 5 days (FIG. 3D).
# as §1
# The methods used were performed as previously described. […]
# For quantitation of IHC signal, the method used was previously described. […] The number of “positive staining” pixels was determined. The area was expressed in square microns and the final data were expressed as IHC staining signal per square micron. The mean of 2-6 samples were plotted and standard errors calculated. […]
# [9] = test system: diabetic wound; settings: applied directly to the wound site; cited from earlier work
# [10] = test system: Swiss Webster (SW) mice; test: Ear hole closure in ear-punched Swiss Webster mice; type: in vivo, mouse; settings: SW mice given 2 mg/ml drug/gel 3 times plus the inhibitor
# Source text: Inbred mouse strains were used to study the effect of a small molecule inhibitor of PHD on in-vitro and in-vivo levels of HIF1a, and the impact of this on quantitative regenerative ear hole closure phenotypes. In animal studies, 2.1 mm ear hole punch wounds were created and a 1,4-DPCA-containing hydrogel was subcutaneously implanted in the back of the neck of mice at multiple time-points. Healing was monitored by measuring hole diameters. Endpoints of the study were previously determined to be 30+ days post-injury and included key indices of tissue regeneration such as blastema formation, epithelial, dermal, and cartilaginous wound closure with hair follicle replacement plus multiple molecular markers of cellular de-differentiation, re-differentiation, and stem cell state. These parameters were determined by physical measurements of wound closure, standard tissue histology and histomorphometry, and gene expression using quantitative immunohistochemistry, western analysis, and qPCR. The experimental groups were coded and different laboratory personnel were involved in injuries, injections, phenotyping and data analysis. […]
# [11] = test system: 3T3 fibroblasts; test: Cell viability, ISO 10993 neutral red; type: cell-based; settings: 24 hours, positive control
# Procedure: Viability of 3T3 fibroblasts exposed to drug microcrystals was quantified using ISO 10993. Briefly, different dilutions of drug microcrystals in cell culture medium were added to a subconfluent monolayer of 3T3 fibroblasts (n=3). The cells were cultured for 24 hours at 37° C., 5% CO2, and >90% RH and then washed with PBS. Neutral red solution (0.4%) in DMEM was added, and the cells were stained for 3 hours. Following removal of the staining solution and washing the cells with PBS, the cells were destained using 50% ethanol, 49% ddH2O and 1% glacial acetic acid. Following 10 minutes of agitation, absorbance was measured at 540 nm and used to quantify cell viability. […] Culture medium was used as a negative control. Cell culture medium consisted of high glucose DMEM substituted with L-glutamine, penicillin/streptomycin, 10% v/v newborn calf serum and 20 mM HEPES.
# [12] = day 7, 1,4-DPCA drug/gel-treated SW mice plus inhibitor
molecule,measurement,setting,value
"O=C(O)c1c[nH]c2c(ccc3cccnc32)c1=O [1,4-DPCA, 1,4-dihydrophenonthrolin-4-one-3-carboxylic acid]",HIF2a in ear tissue in-vivo,[1],barely affected
same,"HIF target genes Vegf, Hmox1, Ldh-a, Pgk, Pdk1, Glut1 mRNA",[2],specifically increased
same,Laminin (basement membrane) in ear tissue,"[3]; SW ear tissue, immunostaining",reduced
same,MMP9 in ear tissue,"[3]; SW ear tissue, immunostaining",increased
same,inflammatory cell markers MPO and Ly6G in ear tissue,"[3]; SW ear tissue, immunostaining",increased
same,inhibition of prolyl 4-hydroxylase,[4],selective and potent inhibitor
same,inhibition of the hydroxylases in-vitro and in-vivo at the protein level,[5],potent inhibitor
same,collagen hydroxylation and collagen deposition,[6],inhibition of collagen hydroxylation and a reduction in collagen deposition
same,solubility in water,[7],low solubility
same,day on which HIF1a levels in the ear begin to rise,[8],1 days
same,days of peak HIF1a levels in the ear post-injection,[8],3 to 4 days
"CC(=O)N(O)CCCCCNC(=O)CCC(=O)N(O)CCCCCNC(=O)CCC(=O)N(O)CCCCCN [DFX, desferrioxamine B]",diabetic wound healing,[9],enhance diabetic wound healing
"COC(=O)CNC(=O)C(=O)OC [DMOG, dimethyloxallyl glycine]",diabetic wound healing,[9],enhance diabetic wound healing
Endostatin,"HIF1a, CD31 and OCT3/4 staining",[3]; [12],near complete absence
same,"MMP-9, MPO and neutrophil specific-marker",[3]; [12],did not inhibit; also recorded: to a lesser degree
same,laminin staining,"[3]; day 7, 1,4-DPCA drug/gel-treated SW mice, endostatin compared with siHif1a_3",greater degree of inhibition
same,"effect on ear hole closure induced by 1,4-DPCA drug/gel",[10],almost complete blockage of ear hole closure
CCCCCCCCCCCCOS(=O)(=O)[O-].[Na+] [SDS],"IC50, cell viability",[11],in the acceptable range
